From patent US8039668B2, “Naphthalene-based inhibitors of anti-apoptotic proteins” (Burnham Institute for Medical Research, priority 2008, dated 2011)
Like-named read-outs stand apart in the source and are kept apart here.

Columns and labels:
[1] = Liver microsomal stability; assay type: in vitro ADME, rat; conditions: for Microsomal Stability (T = 1 h): Table 6, rat liver microsomes
Excerpt: Liver Microsomal Stability.

[2] = biological target: T1, BCL-XL (Homo sapiens, UniProt Q07817); assay: Competitive fluorescence polarization assay (FPA), Bak BH3 peptide; assay type: binding; parameters: 100 nM GST-BCL-XL ΔTM protein; conditions: read-out: IC50 FPA Bcl-XL
Method: For competitive binding assays, 100 nM GST-BCL-XL ΔTM protein was preincubated with the tested compound at varying concentrations in 47.5 μL PBS (pH=7.4) in 96-well black plates at room temperature for 10 min, then 2.5 μL of 100 nM FITC-labeled Bak BH3 peptide was added to produce a final volume of 50 μL. The wild-type and mutant Bak BH3 peptides were included in each assay plate as positive and negative controls, respectively. […] IC50 was determined by fitting the experimental data to a sigmoidal dose-response nonlinear regression model (SigmaPlot 10.0.1, Systat Software, Inc., San Jose, Calif., USA). Data reported are mean of three independent experiments±standard error (SE). […] Fluorescence polarization was measured after 10 min.
Target sequence in this assay (Q07817 1-209 limits assumed): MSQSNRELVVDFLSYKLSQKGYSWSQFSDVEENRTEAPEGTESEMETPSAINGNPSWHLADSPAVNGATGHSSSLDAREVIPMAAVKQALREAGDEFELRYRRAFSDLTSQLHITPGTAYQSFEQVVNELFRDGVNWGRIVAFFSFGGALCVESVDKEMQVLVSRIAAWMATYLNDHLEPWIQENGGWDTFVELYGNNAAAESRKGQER

[3] = tested on: H460 human lung cell line; assay: Cell viability, ATP-LITE assay; assay type: cell-based; conditions: for EC50: Homo sapiens
Method in brief: (§1)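 Human cancer lines were seeded at 2000 (H460, H1299), 3000 (PC3) or 10,000 (RS11846) cells/well in F12 or RPMI1640 with 5% FBS. Compounds were added in 0.1% DMSO 24 h after seeding. Viability was read by ATP-LITE luminescence after 72 h and normalized to DMSO controls.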

[4] = Plasma stability; assay type: in vitro ADME, rat; conditions: for Plasma stability (T = 1 h): Table 6, rat plasma
Method: Plasma Stability. A 20 μL aliquot of a 10 mM solution in DMSO of the test compound was added to 2.0 mL of heparinized rat plasma (Lampire, P1-150N) to obtain a 100 μM final solution. The mixture was incubated for 1 h at 37.5° C. Aliquots of 100 μL were taken (0, 30 min, 1 h) and diluted with 200 μL of MeOH containing internal standard.

[5] = tested on: Bax/Bak double knockout mouse embryonic fibroblast cells (MEF/DKO); assay: FITC-Annexin V/PI cytotoxicity in Bax/Bak double knockout cells; assay type: cell-based; conditions: 10 μM
Method: MEF/WT and MEF/DKO cells were seeded in 24-well plate at a seeding density of half a million per well (in 1 ml of DMEM medium supplemented by 10% FCS). […] On the following day, floating cells were pooled with adherent cells harvested after brief incubation with 0.25% Trypsin/EDTA solution (Gibco/In-Vitrogen Inc.). Cells were centrifuged and supernatant was discarded, and cell pellet was re-suspended with 0.2 ml of Annexin-V binding buffer, followed by addition of 1 μl Annexin-FITC and 1 μl PI (propidium iodide). The percentage of viable cells was determined by a 3-color FACSort instrument and data analyzed by Flow-Jo program, scoring Annexin V-negative, PI-negative as viable cells.

[6] = biological target: T1, BCL-XL; assay: Isothermal titration calorimetry (ITC); assay type: binding
Method: Titrations were performed using a VP-ITC or ITC200 calorimeter from Microcal (Northampton, Mass.). BCL-XL was used at concentrations between 25 and 100 μM in 20 mM sodium phosphate buffer (pH 7.4) and 5-10% DMSO. Titrants were used at concentrations 10-15 fold of that of the protein in the same buffer. Titrations were carried out at 25° C. Data were analyzed using Microcal Origin software provided by the ITC manufacturer (Microcal, Northampton, Mass.).
Target sequence in this assay (Q07817 whole entry): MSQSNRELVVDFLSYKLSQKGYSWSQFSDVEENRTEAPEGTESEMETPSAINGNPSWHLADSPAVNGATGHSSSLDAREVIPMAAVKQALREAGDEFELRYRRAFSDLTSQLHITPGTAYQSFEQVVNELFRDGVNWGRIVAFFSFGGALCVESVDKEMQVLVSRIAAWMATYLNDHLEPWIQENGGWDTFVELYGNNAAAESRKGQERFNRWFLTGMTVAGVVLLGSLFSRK

[7] = tested on: BP3 human B-cell lymphoma cell line; assay: Annexin V-FITC and propidium iodide assay; assay type: cell-based; conditions: Homo sapiens, B-cell, read-out: EC50 BP3
[8] = tested on: B6Bcl-2 transgenic mice; conditions: for Tox: Bcl-2 transgenic mouse, single ip injection 72 μmol/kg; for percentage of maximum reduction in spleen weight (maximal biological activity) / spleen weight reduction: single ip 72 μmol/kg; for percentage of maximum reduction in spleen weight (maximal biological activity): maximum shrinkage no more than 50%; for spleen weight reduction: single mouse
Method: Transgenic mice expressing BCL-2 have been described as the B6 line. The BCL-2 transgene res a minigene version of a t(14;18) translocation in which the human BCL-2 gene is fused with the immunoglobulin heavy-chain (IgH) locus and associated IgH enhancer. The transgene was propagated on the Balb/c background.
After 24 hours, B6BCL2 mice were sacrificed by intraperitoneal injection of lethal dose of Avertin. Spleen was removed and weighed. […] Spleen tissue was fixed in z-FIX for 3 days and rinsed in PBS, and saved for histological analysis of spleen (H&E staining and TUNEL assay).

[9] = biological target: Bcl-2 (Homo sapiens, UniProt P10415); assay: Competitive fluorescence polarization assay (FPA), Bim BH3 peptide; assay type: binding
[10] = biological target: T2, Bfl-1 (Homo sapiens, UniProt Q16548); assay: Competitive fluorescence polarization assay (FPA); assay type: binding
T2 sequence (Q16548 1-175): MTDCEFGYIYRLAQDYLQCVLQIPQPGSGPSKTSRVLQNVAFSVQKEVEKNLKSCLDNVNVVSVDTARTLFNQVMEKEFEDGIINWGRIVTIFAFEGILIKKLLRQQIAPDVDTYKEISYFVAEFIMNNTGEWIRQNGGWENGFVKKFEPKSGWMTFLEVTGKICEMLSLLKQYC

[11] = biological target: T1, BCL-XL; assay: 1D 1H-NMR binding assay; parameters: key to 1D-^1H NMR: +++, Very Active; ++, Active; +, Mild; −, Weak; conditions: for 1D-^1H NMR: BCL-XL 25 μM, compound 200 μM
Method: By observing the aliphatic region of the spectra, binding could be readily detected due to chemical shift changes in active site methyl groups of Ile, Leu, Thr, Val or Ala (region between −0.8 and 0.3 ppm). All experiments were performed with a 600 MHz spectrometer Bruker Avance 600 equipped with four rf channels and z-axis pulse-field gradients.
Target sequence in this assay (Q07817 whole entry): as the sequence (Q07817 whole entry) above

[12] = tested on: human lymphoma RS11846 cell line; assay: Apoptosis, Annexin V-FITC and propidium iodide assay; assay type: cell-based; conditions: Homo sapiens
[13] = tested on: H1299 cell line; assay: Cell viability, ATP-LITE assay; assay type: cell-based, human; conditions: Homo sapiens
Method in brief: as §1

[14] = tested on: PC3ML cells; assay: Cell viability, ATP-LITE assay; assay type: cell-based, human; conditions: Homo sapiens, PC3-ML
Method in brief: as §1

[15] = biological target: Mcl-1 (Homo sapiens, UniProt Q07820); assay: Competitive fluorescence polarization assay (FPA), Bim BH3 peptide; assay type: binding
[16] = tested on: RS11846 cell line; assay: Cell viability, ATP-LITE assay; assay type: cell-based; conditions: Homo sapiens, read-out: RS11846 EC50 (ATP-LITE assay)
Method in brief: as §1

[17] = NCI-H460, Table 3, ATP-LITE assay, read-out: EC50 H460
[18] = heading: EC50 BP3, Table 3, Annexin V-FITC and propidium iodide assay
[19] = Table 3, Annexin V-FITC and propidium iodide assay, heading: EC50 RS11846, read-out: EC50 RS11846
[20] = NCI-H1299, heading: EC50 H1299, Table 3, ATP-LITE assay, read-out: EC50 H1299
[21] = Table 3, ATP-LITE assay, heading: EC50 PC3ML, read-out: EC50 PC3ML
[22] = Table 3, Annexin V-FITC and propidium iodide assay

Sequence of Mcl-1 (Q07820 whole entry): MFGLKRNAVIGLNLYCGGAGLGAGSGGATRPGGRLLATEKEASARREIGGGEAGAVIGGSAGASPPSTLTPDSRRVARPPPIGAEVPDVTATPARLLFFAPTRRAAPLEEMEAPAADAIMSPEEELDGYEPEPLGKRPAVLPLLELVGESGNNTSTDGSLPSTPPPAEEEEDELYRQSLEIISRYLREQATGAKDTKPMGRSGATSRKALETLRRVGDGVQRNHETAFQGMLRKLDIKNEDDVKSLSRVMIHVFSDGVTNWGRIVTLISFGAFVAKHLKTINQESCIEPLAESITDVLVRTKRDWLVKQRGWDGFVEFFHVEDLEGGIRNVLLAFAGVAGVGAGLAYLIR
Sequence of Bcl-2 (P10415 whole entry): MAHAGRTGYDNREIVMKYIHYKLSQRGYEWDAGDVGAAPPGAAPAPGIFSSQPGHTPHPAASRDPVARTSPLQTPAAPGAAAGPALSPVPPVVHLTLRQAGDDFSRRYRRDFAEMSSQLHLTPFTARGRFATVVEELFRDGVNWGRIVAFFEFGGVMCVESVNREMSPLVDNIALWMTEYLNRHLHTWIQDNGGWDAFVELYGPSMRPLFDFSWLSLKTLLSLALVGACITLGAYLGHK

Compound	Microsomal Stability (T = 1 h) [1]	IC50 [2]	EC50 [3, 17]	Plasma stability (T = 1 h) [4]	MEF/DKO cells killed [5]	Kd [6]	EC50 [7, 18]	Tox [8]	percentage of maximum reduction in spleen weight (maximal biological activity) [8]	spleen weight reduction [8]	IC50 [9]	IC50 [10]	1D-^1H NMR ([11]; Table 3)	EC50 [12, 19]	EC50 [13, 20]	EC50 [14, 21]	IC50 [15]	EC50 [7, 22]	other results
Cc1cc2c(C(=O)NC(C)c3ccc(Cl)cc3)c(O)c(O)cc2c(O)c1-c1c(C)cc2c(C(=O)NC(C)c3ccc(Cl)cc3)c(O)c(O)cc2c1O (stereo not shown) [Compound 8k, N^5,N^5′-bis(1-(4-chlorophenyl)ethyl)-1,1′,6,6′,7,7′-hexahydroxy-3,3′-dimethyl-2,2′-binaphthyl-5,5′-dicarboxamide]	71%	270 nM	500 nM	94%	20-35%	110 nM	1500 nM	4+	85-95%	more than 40%	490 nM	400 nM	+++	5500 nM	3200 nM	5000 nM	230 nM		
Cc1cc2c(C(=O)NCC3CCCCC3)c(O)c(O)cc2c(O)c1-c1c(C)cc2c(C(=O)NCC3CCCCC3)c(O)c(O)cc2c1O [Compound 8m, N^5,N^5′-bis(cyclohexylmethyl)-1,1′,6,6′,7,7′-hexahydroxy-3,3′-dimethyl-2,2′-binaphthyl-5,5′-dicarboxamide]	90%	1100 nM	410 nM	89%	20-35%	850 nM		4+			710 nM	2000 nM	+++	4900 nM	4800 nM	3700 nM	780 nM	900 nM	degraded after 1 hour incubation in rat microsomal preparations ([1]; 1 hour): 10%; degraded after 1 hour incubation in rat plasma ([4]; 1 hour): 11%
Cc1cc2c(C(=O)NCCc3cccc(Cl)c3)c(O)c(O)cc2c(O)c1-c1c(C)cc2c(C(=O)NCCc3cccc(Cl)c3)c(O)c(O)cc2c1O [Compound 8p, N^5,N^5′-bis(3-chlorophenethyl)-1,1′,6,6′,7,7′-hexahydroxy-3,3′-dimethyl-2,2′-binaphthyl-5,5′-dicarboxamide]	90%	6300 nM	990 nM		20-35%			4+	85-95%	more than 40%	4400 nM		+++	4600 nM	7800 nM	3200 nM	3200 nM	410 nM	
Cc1cc2c(C(=O)NC3Cc4ccccc4C3)c(O)c(O)cc2c(O)c1-c1c(C)cc2c(C(=O)NC3Cc4ccccc4C3)c(O)c(O)cc2c1O [Compound 8s, N^5,N^5′-bis(2,3-dihydro-1H-inden-2-yl)-1,1′,6,6′,7,7′-hexahydroxy-3,3′-dimethyl-2,2′-binaphthyl-5,5′-dicarboxamide]		850 nM	940 nM				1100 nM				700 nM	670 nM	++	4100 nM	7100 nM	3000 nM	350 nM		
Cc1cc2c(CCc3ccccc3)c(O)c(O)cc2c(O)c1-c1c(C)cc2c(CCc3ccccc3)c(O)c(O)cc2c1O [Compound 12e, 3,3′-dimethyl-5,5′-diphenethyl-2,2′-binaphthyl-1,1′,6,6′,7,7′-hexaol]	89%	3500 nM		80%	20-35%	410 nM		0			480 nM	5000 nM					830 nM		EC50 ([3]; NCI-H460, read-out: EC50 H460): 920 nM; EC50 [7]: 4140 nM; signs of toxicity ([8]; 72 μmol/kg and even 120 μmol/kg): no significant signs of toxicity; 1D-^1H NMR ([11]; Table 4): +; EC50 ([12]; read-out: EC50 RS11846, Annexin V-FITC and propidium iodide assay): 9800 nM; EC50 ([13]; NCI-H1299, read-out: EC50 H1299): 580 nM; EC50 ([14]; read-out: EC50 PC3ML, ATP-LITE assay): 2400 nM
Cc1ccc(CC(=O)c2c(O)c(O)cc3c(O)c(-c4c(C)cc5c(C(=O)Cc6ccc(C)cc6)c(O)c(O)cc5c4O)c(C)cc23)cc1 [Compound XII, 1,1′-(1,1′,6,6′,7,7′-hexahydroxy-3,3′-dimethyl-2,2′-binaphthyl-5,5′-diyl)bis(2-p-tolylethanone)]																			EC50 ([3]; NCI-H460, read-out: H460 EC50): 820 nM; times more potent than Apogossypol, H460 ([3]; vs Apogossypol): 4-5; EC50 [16]: 2200 nM; times more potent than Apogossypol, ITC Bcl-XL ([6]; vs Apogossypol): 40; 1D ^1H-NMR Binding Assay (BCL-XL) ([11]; Table 9): ++; EC50 ([12]; read-out: RS11846 EC50 (Annexin V- and propidium iodide assay), Table 9): 3000 to 5500 nM; EC50 ([13]; NCI-H1299, read-out: H1299 EC50): 1700 nM; EC50 ([14]; read-out: PC3ML EC50, Table 9): 1900 to 4600 nM
